ChEMBL document CHEMBL1139856, “Smallest peptoids with antiproliferative activity on human neoplastic cells” (J Med Chem, 2007)

Tests used:
Jurkat = test: Cytotoxicity against human Jurkat T cells at <100 uM after 72 hrs; format: cell-based
HL-60 = test: Cytotoxicity against human HL60 cells at <100 uM after 72 hrs; format: cell-based; conditions: hl-60, 72 h
[1] = Cytotoxicity against human MDA-MB-231 cells after 72 hrs; format: cell-based
[2] = Cytotoxicity against human Jurkat T cells after 72 hrs; format: cell-based
[3] = Cytotoxicity against human HL60 cells after 72 hrs; format: cell-based, HL-60
HT-29 = test: Cytotoxicity against human HT29 cells after 72 hrs; format: cell-based; conditions: ht-29, 72 h
[4] = Cytotoxicity against human A549 cells after 72 hrs; format: cell-based
HeLa = test: Antimitotic activity against human HeLa cells after 18 hrs; format: functional, cell-based

IC50 (HeLa)	Compound	Activity (Jurkat)	Activity (HL-60)	GI50 at 72 h [1]	GI50 at 72 h [2]	GI50 at 72 h [3]	GI (HT-29)	GI50 at 72 h [4]
–	O=C1CN(CC2CCCO2)C(=O)CN1CCC(c1ccccc1)c1ccccc1 (stereo unspecified)	Not Active	Not Active	–	–	–	–	–
–	COc1ccc(CCN(CC(N)=O)C(=O)CNCCC(c2ccccc2)c2ccccc2)cc1	–	–	19.1 µM	33.9 µM	31.1 µM	9.14 µM	–
–	COc1ccc(CCNCC(=O)N(CCC(c2ccccc2)c2ccccc2)CC(N)=O)cc1	–	–	9.36 µM	27.3 µM	29.1 µM	9.14 µM	9.36 µM
–	COc1ccc(CCN2CC(=O)N(CCC(c3ccccc3)c3ccccc3)CC2=O)cc1	Not Active	Not Active	–	–	–	–	–
–	NC(=O)CN(CCC(c1ccccc1)c1ccccc1)C(=O)CN(CCC(c1ccccc1)c1ccccc1)C(=O)CNCC1CCCO1 (stereo unspecified) [TRIMER I]	–	–	2.72 µM	21.3 µM	3.55 µM	2.27 µM	2.57 µM
0.035 µM	O=C(CNCCC(c1ccccc1)c1ccccc1)NCCC(c1ccccc1)c1ccccc1	–	–	3.46 µM	10.2 µM	12.6 µM	3.03 µM	3.46 µM
–	COc1ccc(CCN(CC(=O)N(CCC(c2ccccc2)c2ccccc2)CC(N)=O)C(=O)CNCCC(c2ccccc2)c2ccccc2)cc1	–	–	1.32 µM	6.68 µM	21.8 µM	1.41 µM	1.41 µM
–	NC(=O)CN(CCC(c1ccccc1)c1ccccc1)C(=O)CNCC1CCCO1 (stereo unspecified)	Not Active	Not Active	–	–	–	–	–
0.025 µM	COc1ccc(CCN(CC(=O)NCCC(c2ccccc2)c2ccccc2)C(=O)CNCCC(c2ccccc2)c2ccccc2)cc1	–	–	1.02 µM	3.75 µM	2.94 µM	1.04 µM	1.02 µM
0.994 µM	COc1ccc(CCNCC(=O)NCCC(c2ccccc2)c2ccccc2)cc1	–	–	2.73 µM	18 µM	10.6 µM	1.89 µM	3.73 µM
–	NC(=O)CN(CC1CCCO1)C(=O)CNCCC(c1ccccc1)c1ccccc1 (stereo unspecified)	Not Active	Not Active	–	–	–	–	–
–	O=C(CN(CCC(c1ccccc1)c1ccccc1)C(=O)CNCC1CCCO1)NCCC(c1ccccc1)c1ccccc1 (stereo unspecified)	–	–	1.06 µM	5.83 µM	23 µM	0.94 µM	1.06 µM
0.154 µM	NC(=O)CN(CCC(c1ccccc1)c1ccccc1)C(=O)CNCCC(c1ccccc1)c1ccccc1	–	–	3.08 µM	10.5 µM	13.2 µM	1.64 µM	3.08 µM
